Data: DBAASP
Converted amounts (≈) assume the structure as drawn. Values belong to the compound of their own block, whether it stands above or below them.

Legend:
Experiment in all cases: ≥ marks a high value that may be exact or a test limit, other limits are often not marked, values filed in µg/mL are converted to µM
[1] = tested on: Escherichia coli NCTC 10418
[2] = tested on: Staphylococcus aureus NCTC 10788
[3] = tested on: Candida albicans NCYC 1467
[4] = tested on: Staphylococcus aureus KCTC 1621
[5] = tested on: Enterococcus faecium
[6] = tested on: Staphylococcus aureus
[7] = tested on: Salmonella typhimurium KCTC 1926
[8] = tested on: Escherichia coli KCTC 1682
[9] = tested on: Bacillus subtilis KCTC 3068
[10] = tested on: Staphylococcus aureus ATCC 25923
[11] = tested on: Acinetobacter baumannii
[12] = tested on: Escherichia coli
[13] = tested on: Staphylococcus epidermidis ATCC 12228
[14] = tested on: Staphylococcus aureus ATCC 29213
[15] = tested on: Escherichia coli UB1005
[16] = tested on: Pseudomonas aeruginosa
[17] = tested on: Escherichia coli ATCC 25922
[18] = tested on: Salmonella enterica subsp. enterica serovar Typhimurium C77-31
[19] = tested on: Salmonella enterica serovar Typhimurium
[20] = tested on: Pseudomonas aeruginosa PAO1
[21] = tested on: Pseudomonas aeruginosa H103
[22] = tested on: Enterococcus faecalis ATCC 29212
[23] = tested on: Staphylococcus epidermidis
[24] = tested on: Candida albicans
[25] = tested on: Staphylococcus epidermidis KCTC 1917
[26] = tested on: Pseudomonas aeruginosa KCTC 1637
[27] = tested on: Salmonella enterica subsp. enterica serovar Pullorum C79-13

MIC [1]: 16 µM (≈ 42.4 µg/mL)
MIC [2]: 8 µM (≈ 21.2 µg/mL)
MIC [3]: 16 µM (≈ 42.4 µg/mL)
SMILES: CC[C@H](C)[C@H](NC(=O)[C@H](CC(=O)O)NC(=O)[C@H](CCCCN)NC(=O)[C@H](Cc1c[nH]c2ccccc12)NC(=O)[C@H](CC(C)C)NC(=O)[C@H](C)N)C(=O)N[C@@H](CC(C)C)C(=O)N[C@@H](CCCCN)C(=O)N[C@@H](CC(N)=O)C(=O)N[C@@H](CC(C)C)C(=O)N[C@@H](CC(C)C)C(=O)N[C@@H](CCCCN)C(=O)N[C@@H](C)C(=O)N[C@@H](C)C(=O)N[C@@H](CC(C)C)C(=O)N[C@@H](CC(N)=O)C(=O)N[C@@H](CCC(=O)O)C(=O)N[C@H](C(=O)N[C@@H](CC(N)=O)C(=O)N[C@@H](CCC(N)=O)C(=O)N[C@H](C(=O)N[C@H](C(=O)N[C@@H](CCC(N)=O)C(N)=O)C(C)C)[C@@H](C)CC)[C@@H](C)CC [ALWKDILKNLLKAALNEINQIVQ]

MIC [4]: 1.26 µM (≈ 2 µg/mL)
MIC [5]: 1.79 µM (≈ 2.83 µg/mL)
MIC [6]: 2.53 µM (≈ 4 µg/mL)
MIC [7]: 2.53 µM (≈ 4 µg/mL)
MIC [8]: 1.26 µM (≈ 2 µg/mL)
MIC [9]: 1.26 µM (≈ 2 µg/mL)
SMILES: NC(=O)[C@H](CCCN=C(N)N)NC(=O)[C@H](CCCN=C(N)N)NC(=O)[C@H](Cc1c[nH]c2ccccc12)NC(=O)[C@@H]1CCCN1C(=O)[C@H](Cc1c[nH]c2ccccc12)NC(=O)[C@H](Cc1c[nH]c2ccccc12)NC(=O)[C@@H]1CCCN1C(=O)[C@H](Cc1c[nH]c2ccccc12)NC(=O)[C@H](CCCN=C(N)N)NC(=O)[C@@H](N)CCCN=C(N)N [RRWPWWPWRR]

MIC [2]: 17.5 µM (≈ 32 µg/mL)
MIC [3]: ≥ 35 µM
SMILES: CC[C@H](C)[C@H](NC(=O)[C@H](C)NC(=O)[C@H](CC(C)C)NC(=O)[C@@H]1CCCN1C(=O)[C@@H](NC(=O)[C@H](CCSC)NC(=O)CNC(=O)[C@H](CC(C)C)NC(=O)[C@@H](N)CC(C)C)[C@@H](C)CC)C(=O)N[C@@H](CO)C(=O)N[C@@H](C)C(=O)N[C@H](C(=O)N[C@@H](CO)C(=O)N[C@@H](CO)C(=O)N[C@@H](CC(C)C)C(=O)N[C@@H](CO)C(=O)N[C@@H](CCCCN)C(=O)N[C@@H](CC(C)C)C(N)=O)[C@@H](C)CC [LLGMIPLAISAISSLSKL]

MIC [10]: 4 µM (≈ 7.02 µg/mL)
MIC [11]: 8 µM (≈ 14 µg/mL)
MIC [12]: 4 µM (≈ 7.02 µg/mL)
MIC [6]: 4 µM (≈ 7.02 µg/mL)
MIC [13]: 4 µM (≈ 7.02 µg/mL)
MIC [14]: 2 µM (≈ 3.51 µg/mL)
MIC [15]: 2 µM (≈ 3.51 µg/mL)
MIC [16]: 32 µM (≈ 56.2 µg/mL)
MIC [17]: 4 µM (≈ 7.02 µg/mL)
MIC [18]: 4 µM (≈ 7.02 µg/mL)
SMILES: CC(C)[C@H](NC(=O)[C@H](CCCN=C(N)N)NC(=O)[C@H](Cc1c[nH]c2ccccc12)NC(=O)[C@H](CCCN=C(N)N)NC(=O)[C@@H](NC(=O)[C@H](CCCCN)NC(=O)[C@H](Cc1c[nH]c2ccccc12)NC(=O)[C@H](CCCN=C(N)N)NC(=O)[C@@H](NC(=O)[C@H](CCCN=C(N)N)NC(=O)[C@@H](N)Cc1c[nH]c2ccccc12)C(C)C)[C@@H](C)O)C(=O)N[C@@H](CCCCN)C(N)=O [WRVRWKTRWRVK]

MIC [10]: 21.4 µM (≈ 32 µg/mL)
MIC [19]: ≥ 42.8 µM
MIC [17]: 21.4 µM (≈ 32 µg/mL)
MIC [20]: 85.6 µM (≈ 128 µg/mL)
SMILES: CC[C@H](C)[C@H](NC(=O)[C@H](CCCN=C(N)N)NC(=O)[C@H](Cc1c[nH]c2ccccc12)NC(=O)[C@H](CCC(N)=O)NC(=O)[C@@H](N)CCCCN)C(=O)N[C@@H](CCCN=C(N)N)C(=O)N[C@H](C(=O)N[C@@H](C)C(=O)N[C@H](C(=O)N[C@H](C(=O)N[C@@H](CCCN=C(N)N)C(=O)N[C@@H](C)C(=O)O)[C@@H](C)CC)C(C)C)C(C)C [KQWRIRVAVIRA]

MIC [10]: 1 µM (≈ 1.58 µg/mL)
MIC [19]: 4 µM (≈ 6.33 µg/mL)
MIC [21]: 8 µM (≈ 12.7 µg/mL)
MIC [15]: 4 µM (≈ 6.33 µg/mL)
MIC [22]: 2 µM (≈ 3.17 µg/mL)
MIC [23]: 0.5 µM (≈ 0.792 µg/mL)
MIC [24]: 16 µM (≈ 25.3 µg/mL)
SMILES: CC[C@H](C)[C@H](NC(=O)[C@H](CCCN=C(N)N)NC(=O)[C@H](CCCN=C(N)N)NC(=O)[C@H](CC(C)C)NC(=O)[C@@H](N)CCCN=C(N)N)C(=O)N[C@H](C(=O)N[C@H](C(=O)N[C@H](C(=O)N[C@@H](CCCN=C(N)N)C(=O)N[C@H](C(=O)N[C@@H](Cc1ccccc1)C(=O)N[C@@H](CCCN=C(N)N)C(=O)O)C(C)C)[C@@H](C)CC)C(C)C)C(C)C [RLRRIVVIRVFR]

MIC [4]: 8.97 µM (≈ 12.5 µg/mL)
MIC [25]: 8.97 µM (≈ 12.5 µg/mL)
MIC [7]: 4.48 µM (≈ 6.25 µg/mL)
MIC [8]: 8.97 µM (≈ 12.5 µg/mL)
MIC [26]: 8.97 µM (≈ 12.5 µg/mL)
MIC [9]: 8.97 µM (≈ 12.5 µg/mL)
SMILES: CC[C@H](C)[C@H](NC(=O)[C@H](CCCCN)NC(=O)[C@H](CC(C)C)NC(=O)[C@H](CC(C)C)NC(=O)[C@@H](N)CCCCN)C(=O)N[C@H](C(=O)N[C@H](C(=O)N[C@H](C(=O)N[C@@H](CCCCN)C(=O)N[C@H](C(=O)N[C@@H](CC(C)C)C(=O)N[C@@H](CCCCN)C(N)=O)C(C)C)[C@@H](C)CC)C(C)C)C(C)C [KLLKIVVIKVLK]

MIC [4]: 4 µM (≈ 7.06 µg/mL)
MIC [25]: 4 µM (≈ 7.06 µg/mL)
MIC [7]: 4 µM (≈ 7.06 µg/mL)
MIC [8]: 4 µM (≈ 7.06 µg/mL)
MIC [26]: 8 µM (≈ 14.1 µg/mL)
MIC [9]: 2 µM (≈ 3.53 µg/mL)
SMILES: C[C@@H](O)[C@H](NC(=O)[C@H](Cc1c[nH]c2ccccc12)NC(=O)[C@H](Cc1c[nH]c2ccccc12)NC(=O)[C@@H](NC(=O)[C@H](CCCCN)NC(=O)[C@H](Cc1c[nH]c2ccccc12)NC(=O)[C@H](Cc1c[nH]c2ccccc12)NC(=O)[C@@H](NC(=O)[C@H](CCCCN)NC(=O)[C@@H](N)CCCCN)[C@@H](C)O)[C@@H](C)O)C(=O)N[C@@H](CCCCN)C(=O)N[C@@H](Cc1c[nH]c2ccccc12)C(=O)O [KKTWWKTWWTKW]

MIC [10]: 2.7 µM (≈ 3.51 µg/mL)
MIC [19]: 5.3 µM (≈ 6.88 µg/mL)
MIC [21]: 10.7 µM (≈ 13.9 µg/mL)
MIC [15]: 1.3 µM (≈ 1.69 µg/mL)
MIC [22]: 5.3 µM (≈ 6.88 µg/mL)
MIC [23]: 1.3 µM (≈ 1.69 µg/mL)
MIC [24]: 21.4 µM (≈ 27.8 µg/mL)
SMILES: CC[C@H](C)[C@H](NC(=O)[C@@H](NC(=O)[C@@H](NC(=O)[C@H](CCCN=C(N)N)NC(=O)[C@H](CCCN=C(N)N)NC(=O)[C@H](CCC(N)=O)NC(=O)[C@@H](N)CCCN=C(N)N)C(C)C)C(C)C)C(=O)N[C@@H](Cc1c[nH]c2ccccc12)C(=O)N[C@@H](Cc1c[nH]c2ccccc12)C(=O)O [RQRRVVIWW]

MIC [10]: 1.3 µM (≈ 1.83 µg/mL)
MIC [19]: 2.7 µM (≈ 3.8 µg/mL)
MIC [21]: 10.7 µM (≈ 15.1 µg/mL)
MIC [15]: 1.3 µM (≈ 1.83 µg/mL)
MIC [22]: 2.7 µM (≈ 3.8 µg/mL)
MIC [23]: 1.3 µM (≈ 1.83 µg/mL)
MIC [24]: 10.7 µM (≈ 15.1 µg/mL)
SMILES: CC[C@H](C)[C@H](NC(=O)[C@H](CCCN=C(N)N)NC(=O)[C@@H](NC(=O)[C@H](Cc1c[nH]c2ccccc12)NC(=O)[C@H](Cc1c[nH]c2ccccc12)NC(=O)[C@@H](N)CCCN=C(N)N)[C@@H](C)CC)C(=O)N[C@@H](CCCN=C(N)N)C(=O)N[C@@H](Cc1c[nH]c2ccccc12)C(=O)N[C@@H](Cc1cnc[nH]1)C(=O)O [RWWIRIRWH]

MIC [13]: > 128 µM
MIC [14]: > 128 µM
MIC [22]: > 128 µM
MIC [17]: 32 µM (≈ 66.4 µg/mL)
MIC [27]: 16 µM (≈ 33.2 µg/mL)
MIC [18]: ≥ 64 µM
SMILES: NCCCC[C@H](NC(=O)CNC(=O)[C@H](CC(N)=O)NC(=O)[C@H](CCC(=O)O)NC(=O)[C@H](Cc1c[nH]c2ccccc12)NC(=O)[C@H](CCCCN)NC(=O)[C@H](Cc1c[nH]c2ccccc12)NC(=O)[C@H](CCCCN)NC(=O)[C@@H](N)Cc1c[nH]c2ccccc12)C(=O)N[C@@H](Cc1c[nH]c2ccccc12)C(=O)N[C@@H](CCCCN)C(=O)N[C@@H](Cc1c[nH]c2ccccc12)C(=O)N[C@@H](CCC(N)=O)C(=O)N[C@@H](Cc1c[nH]c2ccccc12)C(=O)O [WKWKWENGKWKWQW]

MIC [10]: 13.8 µM (≈ 16 µg/mL)
MIC [19]: 26.8 µM (≈ 31 µg/mL)
MIC [21]: 13.8 µM (≈ 16 µg/mL)
MIC [15]: 6.92 µM (≈ 7.99 µg/mL)
MIC [22]: 13.8 µM (≈ 16 µg/mL)
MIC [23]: 3.46 µM (≈ 4 µg/mL)
MIC [24]: 13.8 µM (≈ 16 µg/mL)
SMILES: CC[C@H](C)[C@H](NC(=O)[C@@H](NC(=O)[C@H](Cc1c[nH]c2ccccc12)NC(=O)[C@@H](NC(=O)[C@@H](N)CCCCN)[C@@H](C)CC)C(C)C)C(=O)N[C@@H](CCCN=C(N)N)C(=O)N[C@@H](Cc1c[nH]c2ccccc12)C(=O)N[C@@H](CCCN=C(N)N)C(N)=O [KIWVIRWR]
